Test results published in patent publication EP4461287A1, “SKIN CARE COSMETIC COMPOSITION” (Creaciones Aromáticas Industriales, S.A., priority 2023, dated 2024).

Legend:
[1] = Cutaneous penetration by Franz cell diffusion, HPLC quantification in the receptor solution; assay type: in vitro ADME; conditions: 20 h, pig skin, 32°C, receptor PBS pH 7.4, 25 µl applied
Protocol: Cutaneous penetration of free acetylhexapeptide-8 and encapsulated acetylhexapeptide-8 (nanocapsule of the present invention) was determined by means Franz cells diffusion. The pig skin samples were used to carry out the experiment, cut into circles 2.5 cm in diameter. The skin was assembled on the receptor compartment of a Franz diffusion cell system with the stratum corneum facing up towards the donor compartment. As a solution for the receptor, 18 ml of phosphate buffered saline (PBS) pH 7.4 stirred by a magnetic rod at 700 rpm were utilized. A 25 µl aliquot of each of the assay formulations was applied on the pig skin. The Franz diffusion cells were kept at 32°C, and after 20 h of incubation, the receptor solution was analyzed by HPLC (I=220 nm) to quantify the amount of acetylhexapeptide-8 was penetrated the skin. Triplicates of the assay were done.
HPLC analysis was performed utilizing a Waters 996 instrument with diode array detector equipped with Waters 2695 separations module and Millenium software; a C18 4.6x150 mm 5 µm reversed phase column by Waters was used. […]
The quantification of acetylhexapeptide-8 in the fluid (PBS) of the receptor chamber was evaluated through HPLC at 20 hours after application of 25 µL of the two solutions on the pig skin.

[2] = system: women with facial wrinkles; experiment: Clinical anti-wrinkle study, preorbital area, 3D skin topography / confocal microscopy of silicone impressions; assay type: in vivo; conditions: O/W emulsion twice a day; for Wrinkles reduction (%) 4 wrinkles: at 4 weeks
Protocol: The clinical study was conducted on 40 women with facial wrinkles between 50 and 60 years of age. All volunteers were healthy and without any systemic or skin disease.
Wrinkles were measured using a topographic skin measurement device, a Bio 3D Structure Light Scanner technology, which performs a 3D reconstruction of the image in silicone (ANTERA 3D® and software (Miravex, Ireland).
The patients were divided into two groups, which applied the assigned O/W emulsions twice a day for two months. One group (1) applied a free Acetylhexapeptide-8 emulsion on one side of the preorbital area and an emulsion with Acetylhexapeptide-8 encapsulated in PCL and chitosan on the other side. The second group applied an O/W emulsion with free HA on one area of a preorbital area and another of the cosmetic composition of the present invention (Acetylhexapeptide-8, HA, PCL and chitosan) on the contralateral side. All participants were asked not to use any cosmetics containing ingredients that could interfere with the wrinkle status of the skin during the study period, nor were they subjected to exposure to direct sunlight.
Before the first application, at 4 and 8 weeks of use, silicone impressions were taken and processed by confocal laser scanning microscopy to evaluate the progress of wrinkles. The maximum depth values within the analysis area were taken as representative values of wrinkles, and the percentage reduction of these values before and after application were calculated as the percentage improvement of skin wrinkles.
In this study, measurements of the main roughness parameters such as mean roughness volume and area affected by roughness were obtained. The average roughness volume is the average (three-dimensional) dimension of the depression of the cutaneous microrelief measured in mm^3. The area affected by roughness is the roughness portion of the measured skin area (two-dimensional, measured in mm^2). The improvement was calculated as the percentage change between the images taken before the treatments and two months […].
Reflection mode confocal microscopy and three-dimensional analysis were used to evaluate the different parameters.
For this purpose, the 40 female volunteers were divided into two groups, and each group applied twice daily for 2 months two assigned emulsions, one to each eye in the same preorbital area. Before treatment, at 4 and 8 weeks, the decrease in wrinkles was quantified by 3D images analyzed by confocal microscopy.

[3] = Moisturizing efficacy: transepidermal water loss (TEWL) study by corneometry on forearms of volunteers; assay type: in vivo; conditions: forearm, women 45-50 years
Protocol: The transpidermal water loss (TEWL) study by corneometry was performed to compare the moisturizing activity of the composition of the present invention and its main components.
The assay was carried out on 20 women between the ages 45 and 50 years. None of the patients had suffered or had any medical history or relevant skin pathologies.
The volunteers were divided into four groups. Daily, for 7 days, the assigned sample was applied to one of the forearms of each group (group 1 sample with free sodium hyaluronate, group 2 sample with free Acetylhexapeptide-8, group 3 sample with free sodium hyaluronate and Acetylhexapeptide-8 and group 4 sample with complete encapsulation (Acetylhexapeptide-8, sodium hyaluronate, polycaprolactone and chitosan). The opposite forearm of each volunteer was the control.
Measurements were taken 2 hours and 7 days after the first application. Epidermal capacitance was evaluated using a CM 825 Corneometer, which allows quantification of surface humidity variations. Measurements were taken in an air-conditioned room (temperature 23°C, relative humidity 34.5%). […]
This trial compared the moisturizing capacity of free HA, free Acetylhexapeptide-8, free HA+Acetylhexapeptide-8 and the composition of the present invention (Acetylhexapeptide-8-HA@PCL-Chi-HA) by measuring the skin loss of water on the forearm of the volunteers analyzed. […]

[4] = system: chromaffin cells; experiment: Inhibition of Ca2+-induced catecholamine ([3H]noradrenaline) release in digitonin-permeabilized chromaffin cells; assay type: cell-based, bovine
Protocol: Chromaffin cell cultures were prepared from bovine adrenal glands by collagenase digestion and then separated from debris and erythrocytes by centrifugation. Briefly, the cells were maintained in monolayer cultures and used between the third and sixth day after plating. All the experiments were carried out at 37°C. Secreted neurotransmitter [^3H]noradrenaline was determined in cells permeabilized with digitonin. Neurotransmitter (catecholamines) release was stimulated by addition of 10 µM) Ca^2+.
To evaluate the enhancement of this activity of encapsulated Acetylhexapeptide-8, the inhibitory capacity on Ca^2+-induced catecholamine release was measured in digitonin-permeabilized chromaffin cells culture.
In particular, the activity of the free peptide free (acetylhexapeptide-8), the peptide encapsulated in Policaprolactone-Chitosan (Acetylhexapeptide-8@PCL-Chi) and the peptide encapsulated with sodium hyaluronate (HA) in PCL-Chi-HA (Acetylhexapeptide-8-HA@PCL-Chi-HA) (present invention) were compared.

Acetylhexapeptide-8 [Free Acetylhexapeptide-8]
% Penetration [1]: 14%
Wrinkles reduction (%) 4 wrinkles [2]: 20.5%
Wrinkles reduction (%) 4 wrinkles ([2]; listed as free Acetylhexapeptide-8): 20%
Wrinkles reduction (%) 8 wrinkles ([2]; at 8 weeks (end of treatment)): 30%
Decrease area affected by roughness (%) ([2]; at 8 weeks): 31.2%
Roughness volume decrease (%) ([2]; at 8 weeks): 35%
Tewl After 2 hours ([3]; 2 hours after first application, control 16): 15.8 g/m^2h
Tewl After 7 days ([3]; after 7 days of daily application, control 17): 16.5 g/m^2h
decrease in total catecholamine exocytosis / inhibition of the release of neurotransmitters ([4]; Ca2+-induced release, versus control): 20%
Cathecolamine release (%) ([4]; stimulated with 10 µM Ca2+, 37°C, control = 100): 80%
